Experimental findings from a melting point compilation (Tetko et al.; mined from patent text by program, amines drawn as free bases though some values may be those of a salt) are described below.

The term melting point denotes the temperature of the solid-liquid transition. `CCCn1c(CCOC)nc2c(N)nc3cc(OC4CCN(C(=O)OC(C)(C)C)CC4)ccc3c21` registered a melting point of 173 to 175 °C.
With `Cc1oc(-c2ccccc2)nc1COc1ccc([N+](=O)[O-])cn1` the figure was 142 to 143 °C; with `O=C1CCC(N2Cc3c(OCc4ccc(CN5CCSCC5)cc4)cccc3C2=O)C(=O)N1` (centres undefined), 134 to 136 °C.
With `O[C@@H](CNCCOc1ccc2oc(-c3noc(C(F)(F)F)n3)cc2c1)c1cccc(Cl)c1` the figure was 108 to 111 °C; with `CS(=O)(=O)OCC1CCN(c2ccc(Br)cc2)C1=O` (centres undefined), 120 to 123 °C.
With `CN1C(=O)N2C(=NC1(C)C)N(C(=O)NC1CCCCC1)c1ccccc12` the figure was 114 to 116 °C.
Molecule `CCCCCCCCCCCCCCCCCCOc1cc(OCC(=O)O)cc(C(=O)N(CC(=O)O)CC(=O)O)c1` registered a melting point of 134 to 136 °C.
With `CSc1ccc(C=C2CCc3cc(OCCn4ccnc4)ccc3C2=O)s1` the figure was 102 to 104 °C; with `COC(=O)C1=CC=C(CC2=CCc3ccc(NC(=O)C(F)(F)F)cc32)C(OC)(OC)C1`, 198 to 200 °C.
With `CCOC(=O)c1sc(-n2ccc(OC)cc2=O)nc1C` the figure was 163 to 165 °C; with `CN1CCN(c2cc(NC(=O)OC(C)(C)C)c([N+](=O)[O-])cc2C#Cc2ccccc2)CC1`, 170 °C.
In the case of `O=C1CC=C(c2ccc(F)cc2)CC1`, the melting point lay in the range of 44.5 to 46.5 °C.
Under `O=[N+]([O-])c1ccc(Oc2ccc(C(c3ccc(Oc4ccc([N+](=O)[O-])cc4)cc3)(C(F)(F)F)C(F)(F)F)cc2)cc1` stands 150 to 152 °C; under `CCOC(=O)C(C)Oc1ccc(N(C)c2cc3ccccc3c(O)n2)cc1` (centres undefined), 96 °C; under `COCCOCOc1ccccc1N1C(C(C)(C)C)ONC1(Br)C(C)(C)C` (centres undefined), 89 to 91 °C.
With `CC(C)(C)OC(=O)N1COC(=O)[C@@H]1Cc1ccccc1` the figure was 84 to 86 °C; with `COc1ccc([N+](=O)[O-])c(Nc2ccc3[nH]ncc3c2)n1`, 206 to 208 °C; with `CC(C)C(=O)O[C@@H]1C[C@H](C(=O)Nc2ccc(N3CCOCC3=O)cc2)N(C(=O)Nc2ccc(Cl)cc2)C1`, 129 °C.
Turning to `CC1(c2ccccc2)C(=O)Nc2cc(Cl)cc(Cl)c2C1=O` (centres undefined), the melting point lay within 222 to 225 °C.
As to `CC(=O)c1ccc(N(C(C)=O)c2ccccc2)cc1`, the melting point fell in the range of 118 to 120 °C.
Under `O=C(O)[C@@H](CC(=O)N1CCN(CC(F)(F)F)CC1)Cc1ccccc1` stands 96 to 98 °C.
With `Cc1c(Cl)nn(-c2ccc(Cl)cc2)c1Cl` the figure was 90 to 91.5 °C; with `Cn1nnnc1Cc1ccc2c(c1)c(C1=CCN(CCN3CCNC3=O)CC1)cn2-c1ccc(F)cc1`, 174 to 176 °C; with `Cc1c(C)n(CC(F)(F)F)c2c(OCc3ccccc3)nncc12`, 83 to 84 °C.
With `O=C1c2ccccc2C(=O)N1CC(=O)N1c2ccccc2N(Cc2ccccc2)C(=O)C2(Cc3ccccc3)CCCC12` (centres undefined) the figure was 214 to 215 °C; with `Cc1c(NC(=O)c2ccc(-c3ccc(F)cc3)cc2)ccc2cc(CN3CCCCCC3)cnc12`, 166 to 168 °C.
Regarding `CC(C)NCc1nc(-c2ncn3c2CN(C)C(=O)c2ccccc2-3)no1`, the melting point lay within 142 to 144 °C.
With `CC(C)n1nc(-c2sc(NC(=O)c3ccc(CN(C)C)cc3)nc2-c2ccccc2)ccc1=O` the figure was 246 to 248 °C.
Under `O=Cc1ccc(F)c(OCc2ccccc2)c1` stands 68 to 69 °C.
`O=C1c2ccccc2C(=O)N1CCCN1C(=O)C2(COc3cc4c(cc32)CCO4)c2ccccc21` (centres undefined) registered a melting point of 214 to 217 °C.
Molecule `CC(C)(C)C1COC1(Cn1cncn1)c1ccc(F)cc1` (centres undefined) gave a melting point of 128 °C.
In turn, `NS(=O)(=O)c1ccc(NC(=O)Nc2ccc3c(c2)Cc2ccccc2-3)cc1` returned a melting point of 280 to 285 °C.
Turning to `Cc1oc(-c2ccccc2)nc1COc1ccc(Sc2nc(-c3ccccc3)c(CCC(=O)O)o2)cc1`, the melting point lay in the range of 136 to 137 °C.
On to `Cc1cccc2c(C=O)cc(C(C)C)c(O)c12`, for which the melting point lay in the range of 125 to 128 °C.
Under `Cc1ccc(-c2nc(SCc3ccccn3)n[nH]2)c(C)c1` stands 112 to 114 °C; under `COc1ccc(CN2C(=O)C(C)(c3cc(N(S(C)(=O)=O)S(C)(=O)=O)ccc3Cl)c3cc(Cl)ccc32)c(OC)c1` (centres undefined), 159 °C; under `CCCCN(CC)CC1CCCCN1CCNC(=O)N1c2ccccc2C(=O)Nc2cccnc21` (centres undefined), 156 to 157 °C.
`Cc1sc(N)c(C#N)c1Cl` returned a melting point of 158 °C.
Turning to `Cc1cnc(-c2cc3c(OC[C@@H](O)CN4CCC(c5ccc6ccccc6c5)CC4)cccc3s2)o1`, the melting point lay within 138 to 139 °C.
The molecule `Nc1ccc2ccccc2c1-c1c(O)ccc2ccccc12` came in with a melting point of 236 to 237 °C.
For `COc1cc2c(cc1OC)C1(CCC(C(=O)O)(C(=O)O)CC1)N(C(=O)OCc1ccccc1)CC2`, the melting point is 181 to 182 °C.
Under `CCCCCC(CC(=O)Nc1cc(C(N)=O)ccc1C(C)(C)C)c1ccc(C(=O)O)cc1OC` (centres undefined) stands 204 to 206 °C; under `CN(C)S(=O)(=O)c1cn(C)c2cc(Cl)ccc2c1=O`, 207 to 209 °C; under `C=CCOC(=O)C(C(=O)NC1C(=O)N2C1SC(C)(C)C2C(=O)OCC=C)=C1SCCS1` (centres undefined), 76 to 77 °C.
Under `CCOC(=O)c1cnn(-c2cccc(S(=O)(=O)N(C)C)n2)c1Cl` stands 117 to 120 °C; under `Cc1nnc(-c2ccc3occ(-c4ccc(C(=O)O)c(F)c4)c3c2)o1`, 282 to 283 °C; under `CCOC(=O)CCCCC(=O)c1c(C)n(C(=O)OC)c(=O)n1C(=O)OC`, 74 to 76 °C.
Under `COc1c(N2CCNC(CF)C2)c(F)cc2c(=O)c(C(=O)O)cn([C@@H]3C[C@@H]3F)c12` (some centres undefined) stands 153 to 156 °C; under `CC(=O)Oc1c(C)cc(C)cc1CCc1cc(C)cc(C)c1OC(C)=O`, 130 to 131 °C.
With `CC(C)c1cc(C(C)C)c(CC(=O)NS(=O)(=O)Oc2c(C(C)C)cc(O)cc2C(C)C)c(C(C)C)c1`, the melting point is 182 to 183 °C.
As for `FC(F)(F)c1ccc2cc3[nH]c(=S)[nH]c3nc2c1`, the melting point was over 320 °C.
As to `CC(C)(OCc1coc(-c2ccc(Cl)cc2)n1)C(=O)O`, the melting point was in the range of 144 to 145 °C.
Under `COc1c(N2CCC(NC(=O)OCc3ccccc3)C(C)(C)C2)c(F)cc2c(=O)c(C(=O)O)cn(C3CC3)c12` (centres undefined) stands 158 to 160 °C; under `Clc1ccccc1-c1nc2cc(Cn3ccnc3)ccc2[nH]1`, 115 °C.
The molecule `CCOC(=O)CC(=O)Nc1c(-c2ccccc2)nn2ccccc12` came in with a melting point of 160 to 161 °C.
Under `CNC(=S)NS(=O)(=O)c1cc(CCNC(=O)c2cnc3ccccc3c2)ccc1OC` stands 85 °C.
With `O=C(CCl)Nc1ccc2c(c1NC(=O)c1cc(C(F)(F)F)ccc1C(F)(F)F)C(=O)c1ccccc1C2=O` the figure was 187 to 188 °C; with `CN(CCNc1ncc(Cc2ccc(Cl)cc2)c(=O)[nH]1)c1ccccn1`, 172 to 174 °C; with `CC(C)(C)c1ccc(/C=C/C(=O)Nc2ccc3c(c2)CCO3)cc1`, 175 to 176 °C.
